From patent EP0066406A1, “Beta-lactam antibiotics” (BEECHAM GROUP PLC, priority 1981, dated 1982)
Read-outs that look alike come from different tables or passages of the source.

What was measured:
Test in all cases: MIC determination (agar/broth)
Assay type in all cases: cell-based
P. mirabilis C 977 = settings: Proteus mirabilis, C977, AGAR
S. aureus Oxford = tested on: S. aureus Oxford
P. mirabilis 889 = settings: Proteus mirabilis, AGAR
S. marcescens US 32 = settings: Serratia marcescens, US32, AGAR
K. aerogenes A = settings: Klebsiella aerogenes
E. coli JT 425 = settings: Escherichia coli, JT425, AGAR
E. cloacae N1 = settings: Enterobacter cloacae, AGAR
E. coli NCTC 10418 = tested on: E. coli NCTC 10418
P. morganii = settings: Morganella morganii, AGAR
S. pyogenes CN 10 = settings: Streptococcus pyogenes, CN10, AGAR
Ps. aeruginosa Dalgleish = settings: Pseudomonas aeruginosa; AGAR; Ps. aeruginosa Dalgleish 10^-2
E. coli JT 4 = settings: Escherichia coli, JT4, AGAR
S. faecalis I = settings: Enterococcus faecalis, AGAR
P. rettgeri = settings: Providencia rettgeri, AGAR
S. aureus Russell = tested on: S. aureus Russell
E. coli ESS = settings: Escherichia coli, AGAR
B. subtilis = settings: Bacillus subtilis, AGAR
N. catarrhalis 1502 = settings: AGAR
[1] = tested on: Ps. aeruginosa NCTC 10662; settings: Pseudomonas aeruginosa
[2] = Staphylococcus aureus, AGAR, read-out: MIC

## CCN1CCN(C(=O)NC(C(=O)N[C@@H]2C(=O)N3[C@@H]2SC(C)(C)[C@@H]3C(=O)O)c2csc(N)n2)C(=O)C1=O (mixture of isomers) [Example 1, 6-[DL-a-(4-Ethyl-2,3-dioxopiperazin-l-carbonylamino)-2-aminothiazol-4-acetamido]penicillanic acid]
P. mirabilis C 977
  MIC: 0.2 µg/mL
S. aureus Oxford; BROTH
  MIC: 1.0 µg/mL
S. aureus Oxford; [2]
  MIC: 1 µg/mL
P. mirabilis 889
  MIC: > 100 µg/mL
S. marcescens US 32
  MIC: 2.5 µg/mL
K. aerogenes A; AGAR
  MIC: 10 µg/mL
K. aerogenes A; BROTH
  MIC: 25 µg/mL
E. coli JT 425
  MIC: 25 µg/mL
E. cloacae N1
  MIC: 0.5 µg/mL
E. coli NCTC 10418; BROTH
  MIC: 1.0 µg/mL
E. coli NCTC 10418; Escherichia coli, NCTC10418, AGAR, read-out: MIC
  MIC: 1 µg/mL
P. morganii
  MIC: 0.5 µg/mL
S. pyogenes CN 10
  MIC: 0.1 µg/mL
Ps. aeruginosa Dalgleish
  MIC: > 100 µg/mL
E. coli JT 4
  MIC: > 100 µg/mL
S. faecalis I
  MIC: 25 µg/mL
P. rettgeri
  MIC: 2.5 µg/mL
S. aureus Russell; BROTH
  MIC: 100 µg/mL
S. aureus Russell; [2]
  MIC: 100 µg/mL
E. coli ESS
  MIC: < 0.02 µg/mL
B. subtilis
  MIC: 2.5 µg/mL
N. catarrhalis 1502
  MIC: < 0.02 µg/mL
[1]; NCTC10662, AGAR, Ps. aeruginosa NCTC 10662
  MIC: 5 µg/mL
[1]; NCTC10662, AGAR, Ps. aeruginosa NCTC 10662 10^-2
  MIC: 2.5 µg/mL
[1]; NCTC10662, BROTH, Ps. aeruginosa NCTC 10662
  MIC: 10 µg/mL
[1]; NCTC10662, BROTH, Ps. aeruginosa NCTC 10662 10^-2
  MIC: 25 µg/mL
